Source: ChEMBL document CHEMBL1136977, “Carbonic anhydrase activators. Activation of the membrane-associated isoform XV with amino acids and amines” (Bioorg Med Chem Lett, 2009)

Tests used:
[1] = target: T1, Carbonic anhydrase 15 (Mus musculus) (UniProt Q99N23); test: Activation of membrane associated mouse recombinant carbonic anhydrase 15 isoform by stopped-flow CO2 hydrase method
T1 sequence (whole entry): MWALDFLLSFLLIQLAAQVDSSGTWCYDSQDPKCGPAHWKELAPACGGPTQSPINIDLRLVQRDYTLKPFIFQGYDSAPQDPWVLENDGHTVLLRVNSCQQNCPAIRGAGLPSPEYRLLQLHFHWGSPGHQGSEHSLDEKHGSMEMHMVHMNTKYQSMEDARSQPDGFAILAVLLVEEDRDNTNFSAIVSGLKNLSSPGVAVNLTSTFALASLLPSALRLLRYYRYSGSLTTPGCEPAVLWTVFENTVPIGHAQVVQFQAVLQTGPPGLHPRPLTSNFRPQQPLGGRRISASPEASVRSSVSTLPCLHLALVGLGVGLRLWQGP

[2] = target: Carbonic anhydrase 4 (Homo sapiens) (UniProt P22748); test: Activation of human recombinant carbonic anhydrase 4 lacking 20 amino terminal residues by stopped-flow CO2 hydrase method
Chain of Carbonic anhydrase 4 (Homo sapiens) (P22748 whole entry, canonical isoform): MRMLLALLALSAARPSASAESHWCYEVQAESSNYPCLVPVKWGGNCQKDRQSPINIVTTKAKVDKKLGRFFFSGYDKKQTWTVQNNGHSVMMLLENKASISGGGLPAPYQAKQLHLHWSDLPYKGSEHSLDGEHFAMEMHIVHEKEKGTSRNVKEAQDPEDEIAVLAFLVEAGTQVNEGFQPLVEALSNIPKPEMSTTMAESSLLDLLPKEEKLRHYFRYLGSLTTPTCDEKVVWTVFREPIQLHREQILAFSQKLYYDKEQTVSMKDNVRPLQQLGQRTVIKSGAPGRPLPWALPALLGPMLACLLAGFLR

[3] = substrate: N[C@@H](Cc1c[nH]cn1)C(=O)O; test: (§1) Activity of membrane associated mouse recombinant carbonic anhydrase 15 isoform
[4] = substrate: N[C@H](Cc1c[nH]cn1)C(=O)O; test: as §1

Molecule	KA [1]	KA [2]	kcat [3]	kcat [4]
N[C@@H](Cc1c[nH]cn1)C(=O)O	32.1 µM	7.3 µM	–	–
NCCN1CCOCC1	9.3 µM	1.3 µM	–	–
NCCc1ccc(O)c(O)c1	7.1 µM	30.9 µM	–	–
N[C@H](Cc1c[nH]cn1)C(=O)O	14.1 µM	12.3 µM	–	–
NCCN1CCNCC1	10.4 µM	24.9 µM	–	–
Nc1ccc(C[C@H](N)C(=O)O)cc1	16.3 µM	0.079 µM	–	–
NCCc1c[nH]cn1	18.5 µM	25.3 µM	–	–
N[C@@H](Cc1ccc(O)c(O)c1)C(=O)O	6.5 µM	15.3 µM	–	–
N[C@H](Cc1ccc(O)c(O)c1)C(=O)O	4 µM	34.7 µM	–	–
N[C@@H](Cc1c[nH]c2ccccc12)C(=O)O	13.5 µM	37.1 µM	–	–
CNC[C@@H](O)c1ccc(O)c(O)c1	6.9 µM	45 µM	–	–
N[C@H](Cc1c[nH]c2ccccc12)C(=O)O	8.7 µM	39.6 µM	–	–
NCCc1ccccn1	11.9 µM	7.13 µM	–	–
N[C@@H](Cc1ccc(O)cc1)C(=O)O	8.9 µM	25.1 µM	–	–
NCc1ccccn1	11.6 µM	5.19 µM	–	–
NCCc1c[nH]c2ccc(O)cc12	7.5 µM	3.14 µM	–	–
Carbonic anhydrase 15 (Mus musculus), Q99N23 (protein) MWALDFLLSFLLIQLAAQVDSSGTWCYDSQDPKCGPAHWKELAPACGGPTQSPINIDLRLVQRDYTLKPFIFQGYDSAPQDPWVLENDGHTVLLRVNSCQQNCPAIRGAGLPSPEYRLLQLHFHWGSPGHQGSEHSLDEKHGSMEMHMVHMNTKYQSMEDARSQPDGFAILAVLLVEEDRDNTNFSAIVSGLKNLSSPGVAVNLTSTFALASLLPSALRLLRYYRYSGSLTTPGCEPAVLWTVFENTVPIGHAQVVQFQAVLQTGPPGLHPRPLTSNFRPQQPLGGRRISASPEASVRSSVSTLPCLHLALVGLGVGLRLWQGP	–	–	8.5 ×10⁵ /s	15 ×10⁵ /s
